In this test the test system is Acinetobacter baumannii. Briefly: Antibacterial activity against Acinetobacter baumannii ATCC 17978 after 24 to 48 hrs in presence of iron chelator 2,2'-dipyridyl by CLSI method. The format is functional.
Broadly, the MIC is the least concentration at which growth counts as inhibited. On to `Cc1nonc1NC(=O)COc1ccccc1`, for which the MIC worked out at 2000 µM. With `CC(=O)Oc1ccc(/C=C/C(=O)Nc2nonc2C)cc1OC(C)=O` the figure was 4000 µM.

For the molecule `Cc1ccnc(SCC(=O)Nc2nonc2C)n1`, the MIC came to 4000 µM. To `Cc1nonc1NC(=O)COc1ccc(Cl)cc1` belongs 1000 µM; to `CCCc1nonc1NC(=O)CCc1ccccc1`, 1000 µM. With `Cc1nonc1NC(=O)COc1cccc2ccccc12` the figure was over 4000 µM. Consider `Cc1nonc1NC(=O)CN(CC(=O)Nc1nonc1C)c1ccccc1`, for which the MIC was over 4000 µM. With `O=C(CCc1ccccc1)Nc1nonc1-c1ccccc1` the figure was over 4000 µM. To `Cc1nonc1NC(=O)COc1ccc(Cl)c(Cl)c1` belongs 1000 µM; to `Cc1nonc1NC(=O)c1ccc2ccccc2c1`, 4000 µM. On to `O=C(COc1ccccc1)Nc1nonc1-c1ccccc1`, for which the MIC was over 4000 µM. With `Cc1nonc1NC(=O)/C=C/c1ccccc1O` the figure was 500 µM; with `O=C(COc1ccccc1Cl)Nc1nonc1-c1ccccc1`, over 4000 µM. To `Cc1nonc1NC(=O)CSc1nc2ccccc2s1` belongs over 4000 µM; to `Cc1nonc1NC(=O)CSc1ccccn1`, 2000 µM; to `Cc1nonc1NC(=O)CCc1ccccc1`, 1000 µM. Consider `Cc1nonc1NC(=O)CSc1ncccn1`, for which the MIC worked out at 4000 µM. With `Cc1nonc1NC(=O)/C=C/c1ccc(O)c(O)c1` the figure was over 4000 µM; with `Cc1nonc1NC(=O)COc1cccc(Cl)c1Cl`, over 4000 µM.

With `Cc1nonc1NC(=O)COc1ccccc1Cl`, the MIC was over 4000 µM. To `Cc1nonc1NC(=O)CSc1ccc2ccccc2c1` belongs over 4000 µM; to `COc1ccc(CCC(=O)Nc2nonc2C)cc1`, 2000 µM. To `Cc1nonc1NC(=O)CSc1ccccc1` belongs 1000 µM; to `O=C(/C=C/c1ccccc1)Nc1nonc1-c1ccccc1`, over 4000 µM; to `Cc1nonc1NC(=O)c1cccc2ccccc12`, 1000 µM. With `O=C(CSc1ccccc1)Nc1nonc1-c1ccccc1` the figure was over 4000 µM; with `CC(=O)Oc1ccccc1/C=C/C(=O)Nc1nonc1C`, 2000 µM; with `Cc1nonc1NC(=O)CSc1nc2ccccc2[nH]1`, 2000 µM.

As for `Cc1nonc1NC(=O)CSC1=NCCS1`, the MIC worked out at 2000 µM. To `Cc1nonc1NC(=O)/C=C/c1ccccc1` belongs 1000 µM; to `CCCc1nonc1NC(=O)/C=C/c1ccccc1`, over 4000 µM.

The record behind these values is ChEMBL document CHEMBL4177606, “Synthesis of novel 1,2,5-oxadiazoles and evaluation of action against Acinetobacter baumannii” (2017).
